“Also recorded” adds a separate entry of the source.
Columns and labels:
[1] = system: HCY-concentration in whole blood; test: Stabilization of the homocysteine (HCY) concentration in withdrawn whole blood stored in monovettes with stabilizer; assay type: cell-based; conditions: room temperature; for HCY-SD (duration of stabilization): whole blood in EDTA- or Na-heparin-monovettes with stabilizer (amount per ml blood); for stabilization of homocysteine (duration): whole blood
Protocol: (§1) Material Used and Processes
(§2) The following inhibitors of methyl transferase or S-adenosylhomocysteine hydrolase have been tested
(§3) The effectiveness of the inhibitors have been tested in combination with the following acids:
(§4) The compositions of further reagents have been:
(§5) Mixture A: 5(4)-AMCA (5.2 mg) and DEOA (3.2 mg), dissolved in 500 μl phosphate buffer.
(§6) Composition of the buffer for mixture A:
(§7) All other substances have been dissolved in water.
(§8) Blood Withdrawal and Treatment of Samples
(§9) Corresponding amounts of stabilizers have been provided in EDTA- or Na-heparin-monovettes for each Example or Comparative Example (see Table 1). The blood withdrawal has been carried out in monovettes with and without stabilizers. For the control value, the monovettes have been centrifuged within 30 minutes after withdrawal.

[2] = system: concentration of cysteine (CYS) in whole blood; test: Stabilization of the cysteine (CYS) concentration in withdrawn whole blood stored in monovettes with stabilizer; assay type: cell-based; conditions: whole blood in EDTA- or Na-heparin-monovettes with stabilizer (amount per ml blood), room temperature
Protocol: as §1, §2, §3, §4, §5, §6, §7, §8, §9

[3] = system: concentration of cysteinyl glycine (CYSGLY) in whole blood; test: Stabilization of the cysteinyl glycine (CYSGLY) concentration in withdrawn whole blood stored in monovettes with stabilizer; assay type: cell-based
Protocol: as §1, §2, §3, §4, §5, §6, §7, §8, §9

[4] = system: concentration of glutathione (GLU) in whole blood; test: Stabilization of the glutathione (GLU) concentration in withdrawn whole blood stored in monovettes with stabilizer; assay type: cell-based
Protocol: as §1, §2, §3, §4, §5, §6, §7, §8, §9

[5] = Storage stability of the reagent; assay type: physicochemical; conditions: can be stored only in cooled state (+4° C.)
Protocol: A problem which occurs when using 3-deazaadenosine resides in that noticable variations of the measured values occur, lying in the range of up to 2 μmol/l in 60 hours with homocysteine and in the range of up to 60 μmol/l in 60 hours with cysteine. […] A further problem resides in that 3-deazaadenosine is not stable at room temperature and can be stored only in cooled state (+4° C.), which limits also its shipment capabilities. However, a simple handling of the reagents is of great importance in the diagnostic medicine, because for example withdrawn blood must be present in an unmodified form and transportable over an extended period without larger expenditure like, for example, cooling.

[6] = system: homocysteine level in blood; conditions: cited from earlier work
[7] = system: sulphur-containing amino acids (HCY, CYS, CYSGLY, GLU) in whole blood; test: Stabilization of sulphur-containing amino acids (HCY, CYS, CYSGLY, GLU) together in whole blood samples; assay type: cell-based; conditions: substance used alone, samples at room temperature
Protocol: as §1, §2, §3, §4, §5, §6, §7, §8, §9

SMILES | HCY-SD (duration of stabilization) [1] | CYS-SD (duration of stabilization) [2] | stabilization of the sulphur-containing amino acids (in words) [7] | further results
Nc1nccc2c1ncn2[C@@H]1O[C@H](CO)[C@@H](O)[C@H]1O [Cmp.-Ex. 1, 3-deazaadenosin] | 56 h | 56 h |  | inhibition of the formation of cysteinyl glycine (in words) [3]: does not inhibit; inhibition of the formation of glutathione (in words) [4]: does not inhibit; stability of the reagent at room temperature (in words) [5]: not stable; increase of the homocysteine level ([6]; 72 hours after the blood withdrawal): about 10%; time over which the reaction from S-adenosylhomocysteine to homocysteine is effectively inhibited ([6]; blood samples): up to 72 hours; time without increase of the homocysteine level in blood ([6]; blood samples): up to 24 hours
NC(=O)c1nc[nH]c1N [5(4)-aminoimidazol-4(5)-carboxamid, 5(4)-aminoimidazol-4(5)-carboxamide] |  |  | no significant stabilization | 
Nc1ncnc2c1ncn2[C@H]1C[C@H](O)[C@@H](CO)O1 [2′-deoxyadenosin] |  |  | no significant stabilization | 
[F-].[Na+] [NaF] |  |  |  | change of the homocysteine level in blood samples (in words) ([6]; in comparison with the initial value at the time of withdrawing the blood): no increase; also recorded: decrease
Nc1nccc2c1ncn2[C@@H]1C=C(CO)[C@@H](O)[C@H]1O [Ex. 14, 3-deazaneplanocin A] | 143 h |  |  | stabilization of homocysteine (duration) [1]: at least 143 hours; stabilization of homocysteine (duration) ([1]; listed as 3DA-NeplA): 143 h
Nc1ncnc2c1ncn2[C@@H]1C=C(CO)[C@@H](O)[C@H]1O [Ex. 13, neplanocin A] | 70 h |  |  | 
O=C1O[C@H]([C@@H](O)CO)C(O)=C1O [Cmp.-Ex. 2, ascorbic acid] | 73 h | 73 h |  | CYSGLY-SD (duration of stabilization) ([3]; whole blood in EDTA- or Na-heparin-monovettes with stabilizer (amount per ml blood), room temperature): 73 h
O=C(O)CC(O)(CC(=O)O)C(=O)O [citric acid] |  |  | no stabilization | 
O=C(O)CN(CCN(CC(=O)O)CC(=O)O)CC(=O)O [Na-EDTA, ethylenediamine tetraacetic acid] |  |  | no stabilization | 
O=C(O)/C=C/C(=O)O [Cmp.-Ex. 3, fumaric acid] | 47 h | 47 h |  | 
